Assay results published in patent US8912144B2, “Method for treating stroke via administration of NEP1-40 and inosine” (Children's Medical Center Corporation, priority 2003, dated 2014).

Test system: corticospinal neurons (CSNs/CSMNs)
Test: Laser-capture microdissection and Illumina microarray gene expression in corticospinal neurons contralateral to stroke
Format: in vivo, rat
Procedure: In a separate group of animals (n=20), layer V pyramidal cells of the sensorimotor cortex were retrogradely labeled by injecting Alexa-Fluor-488-conjugated cholera toxin B subunit (CTB; 300 U/μl in sterile saline) into the cervical spinal cord. For this, animals were anesthetized with a combination of ketamine and Domitor (medetomidine) and a laminectomy was performed at the cervical level of the spinal cord (C2-C4). CTB was stereotaxically delivered into four sites lateral to the corticospinal tract. Injections (1.3 μl) were spaced 1 mm apart on the rostro-caudal axis, and were made 0.5 mm to the left and right of the midline. After allowing two weeks for transport of the tracer, we performed either sham surgery with no treatment (n=6) or stroke surgery combined with saline (n=3) or inosine (n=4) treatment as described above. Seven days later, animals were decapitated under transient gas anesthesia, brains were removed and rinsed in cold RPMI medium, and a tissue block containing the sensorimotor cortex was dissected and placed in OCT Tissue Tek Medium (Sakura Finetek USA Inc., CA) on dry ice within five minutes of death. Ten μm sections were cut onto precleaned Gold Seal RITE-ON glass slides (Gold Seal Prod-ucts, Portsmouth, N.H.), placed on dry ice, and rapidly stored at −80° C.
Slide-mounted sections were thawed and dehydrated in RNAse-free ethanol gradients and xylene. Retro-gradely labeled, fluorescent cortical pyramidal cells in the undamaged hemisphere were individually captured using the Arcturus VERITAS system. ≧500 cells were collected from each animal and stored in Arcturus extraction buffer at −80° C. Total RNA was extracted from cells using the Micro-to-Midi TotalRNA Purification System (Invitrogen, Carlsbad Calif.) and double-amplified using the TargetAmp 2-Round Aminoallyl-aRNA Amplification kit 1.0 (Epicentre, Madison, Wis.). Amplified RNA was checked for average fragment length using the Agilent RNA 6000 Nano LabChip kit (Agilent Technologies, Santa Clara, Calif.) and then biotinylated and hybridized (1 μg) on Illumina RatRef-12 Expression BeadChip arrays (Illumina, San Diego Calif.), querying the expression of >22,000 RefSeq-curated rat transcripts. Results were obtained from a total of 15 samples representing 6 untreated controls, 4 animals with stroke treated with saline and 5 animals with stroke treated with inosine. Slides were processed and scanned with Illumina BeadStation platform according to the manufacturer protocol.
Raw data was analyzed using Bioconductor packages (www.bioconductor.org, (Gentleman et al., 2004)). Low level quality-control analysis was performed using inter-array Pearson correlation and clustering based on variance. Two arrays (1 saline and 1 inosine-treated) were outliers and were excluded from the analysis. Data was normalized using quantile normalization, and analysis of differential expression was performed using a linear model fitting (LIMMA package, (Smyth, 2005). Differentially expressed genes were classified according to gene ontology using Bioconductor packages and online tools (DAVID, http://david.abcc.ncifcrf.gov/). Pathway analysis was carried out using Ingenuity Pathway Analysis (Ingenuity Systems, www.ingenuity.com).

OC[C@H]1O[C@@H](n2cnc3c(O)ncnc32)[C@H](O)[C@@H]1O [inosine]
Signal Intensity, Spnb4 (ILMN_66300, inosine after stroke): 1147
Fold-Induction Stroke, ino vs. cntrl, Bbp (ILMN_66323): 0.58
Signal Intensity, Bbp (ILMN_66323, inosine after stroke): 1150
Fold-Induction Stroke, ino vs. cntrl, LOC305122 (ILMN_66350): 0.58
Signal Intensity, LOC305122 (ILMN_66350, inosine after stroke): 771
Fold-Induction Stroke, ino vs. cntrl, Plekhb1 (ILMN_66651): 0.62
Signal Intensity, Plekhb1 (ILMN_66651, inosine after stroke): 1687
Fold-Induction Stroke, ino vs. cntrl, Ppp1r11 (ILMN_66809): 0.90
Signal Intensity, Ppp1r11 (ILMN_66809, inosine after stroke): 865
Fold-Induction Stroke, ino vs. cntrl, LOC501538 (ILMN_66820): 0.64
Signal Intensity, LOC501538 (ILMN_66820, inosine after stroke): 1132
Fold-Induction Stroke, ino vs. cntrl, Slc25a11 (ILMN_66823): 0.65
Signal Intensity, Slc25a11 (ILMN_66823, inosine after stroke): 263
Fold-Induction Stroke, ino vs. cntrl, Optn (ILMN_67016): 0.69
Signal Intensity, Optn (ILMN_67016, inosine after stroke): 360
Fold-Induction Stroke, ino vs. cntrl, Lxn (ILMN_67020): 0.72
Signal Intensity, Lxn (ILMN_67020, inosine after stroke): 433
Fold-Induction Stroke, ino vs. cntrl, Psmc5 (ILMN_67036): 0.54
Signal Intensity, Psmc5 (ILMN_67036, inosine after stroke): 1620
Fold-Induction Stroke, ino vs. cntrl, MGC72992 (ILMN_67222): 0.63
Signal Intensity, MGC72992 (ILMN_67222, inosine after stroke): 359
Fold-Induction Stroke, ino vs. cntrl, Ywhaq (ILMN_67273): 0.66
Signal Intensity, Ywhaq (ILMN_67273, inosine after stroke): 2844
Fold-Induction Stroke, ino vs. cntrl, LOC498696 (ILMN_67275): 0.51
Signal Intensity, LOC498696 (ILMN_67275, inosine after stroke): 514
Fold-induction CSMNs: Cd63 (ILMN_67382, over and above inosine's effect of decreasing stroke-induced changes): 2.10 fold
Fold-Induction Stroke, ino vs. cntrl, Ggcx (ILMN_67463): 0.93
Signal Intensity, Ggcx (ILMN_67463, inosine after stroke): 526
Fold-Induction Stroke, ino vs. cntrl, Kif3b (ILMN_67572): 0.79
Signal Intensity, Kif3b (ILMN_67572, inosine after stroke): 642
Fold-Induction Stroke, ino vs. cntrl, Zfp422 (ILMN_67578): 0.99
Signal Intensity, Zfp422 (ILMN_67578, inosine after stroke): 557
Fold-induction CSMNs: Ms4a6b (ILMN_67686, over and above inosine's effect of decreasing stroke-induced changes): 2.03 fold
Fold-Induction Stroke, ino vs. cntrl, Dcamkl1 (ILMN_67724): 0.59
Signal Intensity, Dcamkl1 (ILMN_67724, inosine after stroke): 4398
Fold-Induction Stroke, ino vs. cntrl, LOC501601 (ILMN_67885): 0.54
Signal Intensity, LOC501601 (ILMN_67885, inosine after stroke): 791
Fold-Induction Stroke, ino vs. cntrl, Ca2 (ILMN_67903): 0.47
Signal Intensity, Ca2 (ILMN_67903, inosine after stroke): 1008
Fold-Induction Stroke, ino vs. cntrl, LOC287622 (ILMN_67961): 0.69
Signal Intensity, LOC287622 (ILMN_67961, inosine after stroke): 400
Fold-induction CSMNs: Gfap (ILMN_68224, over and above inosine's effect of decreasing stroke-induced changes): 2.46 fold
Fold-Induction Stroke, ino vs. cntrl, Lkap (ILMN_68337): 0.64
Signal Intensity, Lkap (ILMN_68337, inosine after stroke): 758
Fold-Induction Stroke, ino vs. cntrl, Gsn (ILMN_68511): 0.64
Signal Intensity, Gsn (ILMN_68511, inosine after stroke): 2157
Fold-Induction Stroke, ino vs. cntrl, Flot2 (ILMN_68584): 0.70
Signal Intensity, Flot2 (ILMN_68584, inosine after stroke): 667
Fold-Induction Stroke, ino vs. cntrl, Rab40b (ILMN_68736): 0.63
Signal Intensity, Rab40b (ILMN_68736, inosine after stroke): 476
Fold-Induction Stroke, ino vs. cntrl, Dhcr24 (ILMN_68892): 0.53
Signal Intensity, Dhcr24 (ILMN_68892, inosine after stroke): 1032
Fold-Induction Stroke, ino vs. cntrl, Sfxn3 (ILMN_68903): 0.57
Signal Intensity, Sfxn3 (ILMN_68903, inosine after stroke): 261
Fold-Induction Stroke, ino vs. cntrl, Tde2 (ILMN_68952): 0.53
Signal Intensity, Tde2 (ILMN_68952, inosine after stroke): 545
Fold-Induction Stroke, ino vs. cntrl, RGD1309158 (ILMN_69031): 0.52
Signal Intensity, RGD1309158 (ILMN_69031, inosine after stroke): 630
Fold-Induction Stroke, ino vs. cntrl, LOC289036 (ILMN_69224): 0.72
Signal Intensity, LOC289036 (ILMN_69224, inosine after stroke): 1532
Fold-induction CSMNs: Arpc1b (ILMN_69642, over and above inosine's effect of decreasing stroke-induced changes): 2.31 fold
Fold-Induction Stroke, ino vs. cntrl, Ubl3 (ILMN_69708): 0.83
Signal Intensity, Ubl3 (ILMN_69708, inosine after stroke): 479
Fold-Induction, complement cascade gene Bf (B-factor, properdin) (ILMN_69719, LCM-captured CSMNs contralateral a stroke): 2.73 fold
Fold-Induction Stroke, ino vs. cntrl, LOC296126 (ILMN_69931): 0.64
Signal Intensity, LOC296126 (ILMN_69931, inosine after stroke): 332
Fold-Induction Stroke, ino vs. cntrl, LOC315463 (ILMN_69949): 0.54
Signal Intensity, LOC315463 (ILMN_69949, inosine after stroke): 709
Fold-Induction Stroke, ino vs. cntrl, Zfp216 (ILMN_70270): 0.66
Signal Intensity, Zfp216 (ILMN_70270, inosine after stroke): 888
Fold-induction CSMNs: A2m (ILMN_70335, over and above inosine's effect of decreasing stroke-induced changes): 4.10 fold
Fold-Induction Stroke, ino vs. cntrl, LOC366188 (ILMN_70369): 0.85
Signal Intensity, LOC366188 (ILMN_70369, inosine after stroke): 1100
